Patent US5344821A, “Pheromonostatic peptide used to disrupt mating of the corn earworm, helicoverpa zea” (The United States of America, as represented by the …, priority 1993, dated 1994)
Structures can show the parent of a compound that is named as a salt.

Experiments:
[1] = tested on: H. zea females; assay: Bioassay: pheromone content of ligated, PBAN-injected females after a second injection with the isolated material; assay type: in vivo, Helicoverpa zea
Procedure: The activity of the two peptides was evaluated by bioassay. Females were first ligated between head & thorax to remove their own source of PBAN; they were then injected with PBAN to stimulate pheromone biosynthesis, followed by a later injection with the isolated material.
Females in their 1st or 2nd photophase after emergence are ligated between the head and thorax with silk thread. The following morning, approximately 16 hours later, the females are injected with 2 picomoles of the pheromonotropic peptide PBAN. One hour later, they are injected a second time with fractionated material obtained as described supra. Two hours later, the tip of the abdomen (at the 7th abdominal segment), containing the ovipositor and the glandular tissue producing sex pheromone, is excised and extracted with 5-15 μl heptane The amount of the major component of sex pheromone, Z-11-hexadecenal, is quantified by gas chromatography. Females receiving saline (control) at the second injection typically contain 50-150 nanograms pheromone in the extract while females having been injected with the peptides extracted from the male reproductive tract are found to have 1-5 nanograms.

[2] = tested on: female H. zea; assay: Depletion of female sex pheromone after transfer of the polypeptide during mating; assay type: in vivo, Helicoverpa zea
Procedure: This invention relates to a polypeptide which is transferred from the male corn earworm moth to the female during mating. After transfer, a decline in the production of sex pheromone is observed for at least 24 hours and the female becomes unattractive to males over that period of time. A continued presence of this peptide within the female serves as an effective means of insect control by rendering it permanently unattractive. The peptide is also useful in the study of insect physiology.
Non-volatile chemicals may also trigger behavioral changes. As described above, the neuropeptide PBAN initiates pheromone biosynthesis. In addition, another polypeptide, pheromonostatic peptide (PSP) is produced in the reproductive tract of male H. zea and is transferred with spermatozoa to the female during mating.

[3] = tested on: H. zea males; details: caged males; cited from earlier work
[4] = tested on: H. zea males; details: field experiments, sticky or electric grid traps; cited from earlier work
[5] = tested on: corn earworm moths; details: cited from earlier work
[6] = tested on: tobacco budworm moths; details: cited from earlier work

## PSP: basic, 57-amino acid peptide, 6615 daltons, one disulfide, pyro-Glu N-terminus, amidated C-terminus, from male H. zea accessory glands and duplex
[1]; ligated females injected with PBAN, then with the isolated material
  pheromone accumulation with versus without PSP injection: females receiving no PSP typically accumulated pheromone in much higher amounts than those having been injected with PSP
[1]; ligated females, 2 picomoles PBAN, test material injected 1 hour later, gland excised 2 hours later, gas chromatography, saline control 50-150 nanograms
  amount of Z-11-hexadecenal (major component of sex pheromone) in the ovipositor/gland extract: 1-5 nanograms
[2]; after transfer during mating
  duration of the pheromone depletion: at least 24 hours
[2]; transferred with spermatozoa from male to female during mating
  effect on female sex pheromone after transfer at mating: causes a depletion of the sex pheromone

## CCCC/C=C\CCCCCCCCCC=O [Z-11-hexadecenal]
[3]
  sex stimulation activity: strong sex stimulation activity
[4]
  catch of males in traps in the presence of the compound: inhibited

## CCCC/C=C\CCCCCCCCOC=O [(Z)-9-TDF, (Z)-9-tetradecen-1-ol formate]
[5]
  reduction of mating: effective in reducing mating
[6]
  reduction of mating: effective in reducing mating
